For orientation: melting point means the temperature, or range, at which the solid turns liquid.

For the molecule `COc1nc(N)c(Cl)cc1C(=O)CCC1CCNCC1.Cl`, the melting point was found to be 230.6 °C. Then `CCN1CCC(CNC(=O)c2cc(Cl)c(N)[nH]c2=O)CC1` [Example 1, 6-Amino-5-chloro-N-[(1-ethyl-4-piperidinyl)methyl]-2-oxo-1,2-dihydro-3-pyridinecarboxamide], with 136 to 140 °C. The molecule `CC(C)CCN1CCC(CNC(=O)c2cc(Cl)c(N)[nH]c2=O)CC1` [Example 5, 6-Amino-5-chloro-N-{[1-(3-methylbutyl)-4-piperidinyl]methyl}-2-oxo-1,2-dihydro-3-pyridinecarboxamide] showed a melting point of 131 to 135 °C. In turn, `CC(C)CN1CCC(CNC(=O)c2cc(Cl)c(N)[nH]c2=O)CC1` [Example 6, 6-Amino-5-chloro-N-{[1-(2-methylpropyl)-4-piperidinyl]methyl}-2-oxo-1,2-dihydro-3-pyridinecarboxamide] registered a melting point of 128 to 133 °C.

`CCOC(=O)CN1CCC(CNC(=O)c2cc(Cl)c(N)[nH]c2=O)CC1` [Example 7, Ethyl [4-({[(6-amino-5-chloro-2-oxo-1,2-dihydro-3-pyridinyl)carbonyl]amino}methyl)-1-piperidinyl]acetate] displayed a melting point of 162 to 164 °C.

On to `CC(C)(C)OC(=O)CN1CCC(CNC(=O)c2cc(Cl)c(N)[nH]c2=O)CC1` [Example 8, 1,1-Dimethylethyl [4-({[(6-amino-5-chloro-2-oxo-1,2-dihydro-3-pyridinyl)carbonyl]amino}methyl)-1-piperidinyl]acetate], for which the melting point was in the range of 200 to 203 °C. The result for `CCCCN1CCC(CCC(=O)c2cc(Cl)c(N)nc2OC)CC1` [Example 10, 1-[6-Amino-5-chloro-2-(methoxy)-3-pyridinyl]-3-(1-butyl-4-piperidinyl)-1-propanone] reads 86 to 87 °C. Then `CCCCN1CCC(CCC(=O)c2ccc(N)nc2OC)CC1` [Example 12, 1-(6-Amino-2-methoxy-3-pyridinyl)-3-(1-butyl-4-piperidinyl)-1-propanone], with 85 to 89 °C; and `COc1nc(N)c(Cl)cc1C(=O)CCC1CCN(CC(C)C)CC1` [Example 14, 1-(6-Amino-5-chloro-2-methoxy-3-pyridinyl)-3-(1-isobutyl-4-piperidinyl)-1-propanone], with 128 °C; and `CC(C)CN1CCC(CCC(=O)c2cc(Cl)c(N)[nH]c2=O)CC1` [Example 15, 6-Amino-5-chloro-3-[3-(1-isobutyl-4-piperidinyl)propanoyl]-2(1H)-pyridinone], with 175 °C. Then `COc1nc(N)ccc1C(=O)CCC1CCN(CC2CCCCC2)CC1` [Example 16, 1-(6-Amino-2-methoxy-3-pyridinyl)-3-[1-(cyclohexylmethyl)-4-piperidinyl]-1-propanone], with 73.2 °C; and `Nc1[nH]c(=O)c(C(=O)CCC2CCN(CC3CCCCC3)CC2)cc1Cl` [Example 106, 6-Amino-5-chloro-3-{3-[1-(cyclohexylmethyl)piperidine-4-yl]propanoyl}pyridin-2(1H)-one], with 164.3 °C.

Regarding `COc1nc(N)c(Cl)cc1C(=O)CCC1CCN(CC(O)C(C)(C)C)CC1` (stereo not drawn) [Example 107, 1-(6-Amino-5-chloro-2-methoxypyridin-3-yl)-3-[1-(2-hydroxy-3,3-dimethylbutyl)piperidine-4-yl]propan-1-one], the melting point was 134 °C. The result for `CC(C)(C)C(O)CN1CCC(CCC(=O)c2cc(Cl)c(N)[nH]c2=O)CC1` (stereo not drawn) [Example 108, 6-Amino-5-chloro-3-{3-[1-(2-hydroxy-3,3-dimethylbutyl)-piperidine-4-yl]propanoyl}pyridin-2(1H)-one] reads 211.3 °C. On to `COc1nc(N)c(Cl)cc1C(=O)CCC1CCN(CC(C)(C)O)CC1` [Example 109, 1-(6-Amino-5-chloro-2-methoxypyridin-3-yl)-3-[1-(2-hydroxy-2-methylpropyl)piperidine-4-yl]propan-1-one], for which the melting point worked out at 108.1 °C.
